# Source: patent publication US4123612A, “7-(5-Am ino-5-carboxyvaleramido)-3-(carbamoyoloxymethyl)-3-cephem-4-carboxylic acid” (Eli Lilly and Company, priority 1974, dated 1978)
# Structures can show the parent of a compound that is named as a salt.
# Assays:
# Escherichia coli 0127 = test: Bauer-Kirby disc diffusion, zone of inhibition; assay type: cell-based
# [1] = test system: Klebsiella-Aerobacter KA 25; test: Bauer-Kirby disc diffusion, zone of inhibition; assay type: cell-based
# Escherichia coli EC 25 = test: Bauer-Kirby disc diffusion, zone of inhibition; assay type: cell-based
# [2] = test system: Klebsiella-Aerobacter KA 14; test: Bauer-Kirby disc diffusion, zone of inhibition; assay type: cell-based
# Salmonella typhosa SA 16 = test: Bauer-Kirby disc diffusion, zone of inhibition; conditions: Salmonella enterica
# From the text: (§2) The evaluation was made on the monoammonium salts of separated factors I and II.
# [3] = test system: Staphylococcus aureus 3074; test: Bauer-Kirby disc diffusion, zone of inhibition; assay type: cell-based
# Pseudomonas sp. Ps 24 = test: Bauer-Kirby disc diffusion, zone of inhibition; assay type: cell-based
# [4] = test system: Ascaris lumbricoides var. suum; test: anthelmintic evaluation in mice by treated feed, separate factors (Example 13); assay type: in vivo; conditions: 0.05 percent in diet, control 2.66
# From the text: The feeds were utilized as diets for separate groups of mice, five mice per group. About twelve hours after initiation of the feeding, the mice were infected with Ascaris lumbricoides var. suum ova. Another group of five mice was fed the non-medicated feed to serve as a control but was similarly infected at the same time with Ascaris lumbricoides var. suum. All groups were fed their respective feed and maintained under normal laboratory conditions for a period of eight days, at which time all mice were taken off feed. On the ninth day, all mice were sacrificed and the lungs examined to determine the presence, and if present, numbers, of lesions of Ascaris lumbricoides var. suum.
# In a further evaluation, the monoammonium salts of A16886I and A16886II were separately evaluated for the control of Ascaris lumbricoides var. suum. The evaluations were conducted in accordance with the procedure reported in Example 11 at a concentration in the diet of 0.05 percent.
# physchem = conditions: 66% dimethylformamide-water
# Proteus sp. PR6 = test: Bauer-Kirby disc diffusion, zone of inhibition; assay type: cell-based
# solubility = assay type: physicochemical
# Salmonella typhosa SA 12 = test: Bauer-Kirby disc diffusion, zone of inhibition; conditions: Salmonella enterica
# From the text: as §2
# [5] = test system: Staphylococcus aureus 3055; test: Bauer-Kirby disc diffusion, zone of inhibition; assay type: cell-based
# Pseudomonas sp. Ps 30 = test: Bauer-Kirby disc diffusion, zone of inhibition; assay type: cell-based
# Proteus sp. PR7 = test: Bauer-Kirby disc diffusion, zone of inhibition; assay type: cell-based
# Xanthomonas vesicatoria = test: field trial on tomato plants, bacterial spot control (Example 9); assay type: in vivo
# Procedure: (§1) A mixture of the monoammonium salt of A16886I and the monoammonium salt of A16886II was tested under field conditions for the control of Xanthomonas vesicatoria (bacterial spot) on mature bearing tomato plants. The mixture of the two salts was dispersed in water at a concentration of 100, 200, or 400 parts per million and applied to the plants at the rate of 75 gallons per acre. Application was made with a CO2 sprayer at 50 psi. Plants were sprayed twice, on successive days; after the second spray had dried, all plants were wounded by sand blasting and then within one minute the plants were inoculated with a bacterial inoculum of Xanthomonas vesicatoria. Three days later, a third spray application of the aqueous formulation of A16886 was made. Readings were made one week and two weeks after the last spray treatment. Controls consisted of groups of plants (1) sand blasted and inoculated; (2) sand blasted only; (3) untreated; and (4) treated with streptomycin (on the same three-day spraying schedule, at a concentration of 100, 200, or 400 parts per million of aqueous solution, using a rate of 75 gallons per acre), sand blasted, and inoculated. The results were as set forth in the following table, in which crop injury is reported on a scale of 0-10, with 0 = no injury and 10 = dead plants; and control of bacterial spot is reported on a percentage basis.
# tomato plants = test: field trial on tomato plants, crop injury (Example 9); assay type: in vivo; conditions: 0 = no injury, 10 = dead plants
# Procedure: as §1
structure (smiles),measurement,setting,value
"NC(=O)OCC1=C(C(=O)O)N2C(=O)C(NC(=O)CCCC(N)C(=O)O)[C@H]2SC1 (stereo partly drawn) [A16886II, 7-(5-amino-5-carboxyvaleramido)-3-(carbamoyloxymethyl)-3-cephem-4-carboxylic acid]",zone of inhibition at 0.5 µg/disc,Escherichia coli 0127; 0.5 μg./disc,0 mm
same,zone of inhibition at 1 µg/disc,Escherichia coli 0127; 1.0 μg./disc,0 mm
same,zone of inhibition at 2.5 µg/disc,Escherichia coli 0127; 2.5 μg./disc,9.4 mm
same,zone of inhibition at 5 µg/disc,Escherichia coli 0127; 5 μg./disc,12.9 mm
same,zone of inhibition at 10 µg/disc,Escherichia coli 0127; 10 μg./disc,15.9 mm
same,zone of inhibition at 30 µg/disc,Escherichia coli 0127; 30 μg./disc,19.7 mm
same,zone of inhibition at 0.5 µg/disc,[1]; 0.5 μg./disc,0 mm
same,zone of inhibition at 1 µg/disc,[1]; 1.0 μg./disc,0 mm
same,zone of inhibition at 2.5 µg/disc,[1]; 2.5 μg./disc,0 mm
same,zone of inhibition at 5 µg/disc,[1]; 5 μg./disc,7.4 mm
same,zone of inhibition at 10 µg/disc,[1]; 10 μg./disc,10.1 mm
same,zone of inhibition at 30 µg/disc,[1]; 30 μg./disc,15.6 mm
same,zone of inhibition at 0.5 µg/disc,"Escherichia coli EC 25; EC25, 0.5 μg./disc",0 mm
same,zone of inhibition at 1 µg/disc,"Escherichia coli EC 25; EC25, 1.0 μg./disc",0 mm
same,zone of inhibition at 2.5 µg/disc,"Escherichia coli EC 25; EC25, 2.5 μg./disc",0 mm
same,zone of inhibition at 5 µg/disc,"Escherichia coli EC 25; EC25, 5 μg./disc",0 mm
same,zone of inhibition at 10 µg/disc,"Escherichia coli EC 25; EC25, 10 μg./disc",7.7 mm
same,zone of inhibition at 30 µg/disc,"Escherichia coli EC 25; EC25, 30 μg./disc",11.9 mm
same,zone of inhibition at 0.5 µg/disc,[2]; 0.5 μg./disc,0 mm
same,zone of inhibition at 1 µg/disc,[2]; 1.0 μg./disc,0 mm
same,zone of inhibition at 2.5 µg/disc,[2]; 2.5 μg./disc,0 mm
same,zone of inhibition at 5 µg/disc,[2]; 5 μg./disc,10.8 mm
same,zone of inhibition at 10 µg/disc,[2]; 10 μg./disc,13.7 mm
same,zone of inhibition at 30 µg/disc,[2]; 30 μg./disc,20.1 mm
same,zone of inhibition at 0.5 µg/disc,Salmonella typhosa SA 16,0 mm
same,zone of inhibition at 1 µg/disc,Salmonella typhosa SA 16,0 mm
same,zone of inhibition at 2.5 µg/disc,Salmonella typhosa SA 16,7.5 mm
same,zone of inhibition at 5 µg/disc,Salmonella typhosa SA 16,11 mm
same,zone of inhibition at 10 µg/disc,Salmonella typhosa SA 16,13.4 mm
same,zone of inhibition at 30 µg/disc,Salmonella typhosa SA 16,19.3 mm
same,zone of inhibition at 0.5 µg/disc,[3]; 0.5 μg./disc,0 mm
same,zone of inhibition at 1 µg/disc,[3]; 1.0 μg./disc,0 mm
same,zone of inhibition at 2.5 µg/disc,[3]; 2.5 μg./disc,0 mm
same,zone of inhibition at 5 µg/disc,[3]; 5 μg./disc,0 mm
same,zone of inhibition at 10 µg/disc,[3]; 10 μg./disc,0 mm
same,zone of inhibition at 30 µg/disc,[3]; 30 μg./disc,10.1 mm
same,zone of inhibition at 0.5 µg/disc,"Pseudomonas sp. Ps 24; SP.PS24, 0.5 μg./disc",0 mm
same,zone of inhibition at 1 µg/disc,"Pseudomonas sp. Ps 24; SP.PS24, 1.0 μg./disc",0 mm
same,zone of inhibition at 2.5 µg/disc,"Pseudomonas sp. Ps 24; SP.PS24, 2.5 μg./disc, * = satellite colonies within zone (Factor II)",9.3 mm
same,zone of inhibition at 5 µg/disc,"Pseudomonas sp. Ps 24; SP.PS24, 5 μg./disc, * = satellite colonies within zone (Factor II)",12.3 mm
same,zone of inhibition at 10 µg/disc,"Pseudomonas sp. Ps 24; SP.PS24, 10 μg./disc",15.4 mm
same,zone of inhibition at 30 µg/disc,"Pseudomonas sp. Ps 24; SP.PS24, 30 μg./disc",20.2 mm
same,Average Number of Lung Lesions Per Group,[4],0.20
same,pKa,"physchem; pH 6.8, pK'a1",4
same,pKa,"physchem; pH 6.8, pK'a2",5.3
same,pKa,"physchem; pH 6.8, pK'a3",9.2
same,pKa,"physchem; pH 6.8, pK'a4",10.5
same,pKa,"physchem; pH 7.7, pK'a1",4.4
same,pKa,"physchem; pH 7.7, pK'a2",5.7
same,pKa,"physchem; pH 7.7, pK'a3",9.6
same,pKa,"physchem; pH 7.7, pK'a4",10.4
same,zone of inhibition at 0.5 µg/disc,Proteus sp. PR6; 0.5 μg./disc,0 mm
same,zone of inhibition at 1 µg/disc,Proteus sp. PR6; 1.0 μg./disc,0 mm
same,zone of inhibition at 2.5 µg/disc,Proteus sp. PR6; 2.5 μg./disc,10.4 mm
same,zone of inhibition at 5 µg/disc,Proteus sp. PR6; 5 μg./disc,13.6 mm
same,zone of inhibition at 10 µg/disc,Proteus sp. PR6; 10 μg./disc,16.7 mm
same,zone of inhibition at 30 µg/disc,Proteus sp. PR6; 30 μg./disc,22.2 mm
same,solubility in acetonitrile and other organic solvents,solubility; acetonitrile and other organic solvents,essentially insoluble
same,solubility in lower alkanols,solubility; lower alkanols,slightly soluble
same,solubility in water,solubility; water,very soluble
same,zone of inhibition at 0.5 µg/disc,Salmonella typhosa SA 12,0 mm
same,zone of inhibition at 1 µg/disc,Salmonella typhosa SA 12,7.5 mm
same,zone of inhibition at 2.5 µg/disc,Salmonella typhosa SA 12,12.3 mm
same,zone of inhibition at 5 µg/disc,Salmonella typhosa SA 12,15.6 mm
same,zone of inhibition at 10 µg/disc,Salmonella typhosa SA 12,18.7 mm
same,zone of inhibition at 30 µg/disc,Salmonella typhosa SA 12,23.8 mm
same,zone of inhibition at 0.5 µg/disc,[5]; 0.5 μg./disc,0 mm
same,zone of inhibition at 1 µg/disc,[5]; 1.0 μg./disc,0 mm
same,zone of inhibition at 2.5 µg/disc,[5]; 2.5 μg./disc,0 mm
same,zone of inhibition at 5 µg/disc,[5]; 5 μg./disc,0 mm
same,zone of inhibition at 10 µg/disc,[5]; 10 μg./disc,0 mm
same,zone of inhibition at 30 µg/disc,[5]; 30 μg./disc,12.4 mm
same,zone of inhibition at 0.5 µg/disc,"Pseudomonas sp. Ps 30; SP.PS30, 0.5 μg./disc",0 mm
same,zone of inhibition at 1 µg/disc,"Pseudomonas sp. Ps 30; SP.PS30, 1.0 μg./disc",0 mm
same,zone of inhibition at 2.5 µg/disc,"Pseudomonas sp. Ps 30; SP.PS30, 2.5 μg./disc",0 mm
same,zone of inhibition at 5 µg/disc,"Pseudomonas sp. Ps 30; SP.PS30, 5 μg./disc",0 mm
same,zone of inhibition at 10 µg/disc,"Pseudomonas sp. Ps 30; SP.PS30, 10 μg./disc",0 mm
same,zone of inhibition at 30 µg/disc,"Pseudomonas sp. Ps 30; SP.PS30, 30 μg./disc",0 mm
same,zone of inhibition at 0.5 µg/disc,Proteus sp. PR7; 0.5 μg./disc,0 mm
same,zone of inhibition at 1 µg/disc,Proteus sp. PR7; 1.0 μg./disc,0 mm
same,zone of inhibition at 2.5 µg/disc,Proteus sp. PR7; 2.5 μg./disc,0 mm
same,zone of inhibition at 5 µg/disc,Proteus sp. PR7; 5 μg./disc,0 mm
same,zone of inhibition at 10 µg/disc,Proteus sp. PR7; 10 μg./disc,0 mm
same,zone of inhibition at 30 µg/disc,Proteus sp. PR7; 30 μg./disc,7.1 mm
COC1(NC(=O)CCCC(N)C(=O)O)C(=O)N2C(C(=O)O)=C(COC(N)=O)CSC21 (stereo not drawn) [A16886I hydrochloride],pKa,"physchem; pH 5, pK'a1",3.6
same,pKa,"physchem; pH 5, pK'a2",5.2
same,pKa,"physchem; pH 5, pK'a3",10.8
[H]/N=C(/N)N[C@H]1[C@H](O)[C@@H](O)[C@H](O[C@@H]2O[C@@H](C)[C@](O)(C=O)[C@H]2O[C@@H]2O[C@@H](CO)[C@H](O)[C@@H](O)[C@@H]2NC)[C@@H](N/C(N)=N\[H])[C@@H]1O [Streptomycin],Percent Bacterial Spot Control,"Xanthomonas vesicatoria; 100 parts/million, first reading (one week)",83%
same,Percent Bacterial Spot Control,"Xanthomonas vesicatoria; 100 parts/million, second reading (two weeks)",57%
same,Percent Bacterial Spot Control,"Xanthomonas vesicatoria; 200 parts/million, first reading (one week)",81%
same,Percent Bacterial Spot Control,"Xanthomonas vesicatoria; 200 parts/million, second reading (two weeks)",37%
same,Percent Bacterial Spot Control,"Xanthomonas vesicatoria; 400 parts/million, first reading (one week)",83%
same,Percent Bacterial Spot Control,"Xanthomonas vesicatoria; 400 parts/million, second reading (two weeks)",59%
same,Crop Injury Ratings,"tomato plants; 100 parts/million, first reading",0
same,Crop Injury Ratings,"tomato plants; 100 parts/million, second reading",0
same,Crop Injury Ratings,"tomato plants; 200 parts/million, first reading",0
same,Crop Injury Ratings,"tomato plants; 200 parts/million, second reading",0
same,Crop Injury Ratings,"tomato plants; 400 parts/million, first reading",0
same,Crop Injury Ratings,"tomato plants; 400 parts/million, second reading",0
